Experiments:
[1] = tested on: Leishmania amazonensis; assay: Leishmanicidal activity against promastigote form of Leishmania amazonensis assessed as inhibition of parasite growth after 72 hrs by Neubauer's chamber method; type: functional, organism-based
[2] = Selectivity ratio of CC50 for human PBMC to IC50 for promastigote form of Leishmania amazonensis
[3] = (§1) Cytotoxicity against human PBMC assessed as cell viability after 48 hrs by MTT reduction assay; type: cell-based; details: PBMC (peripheral blood mononuclear cells)
[4] = tested on: PBMC; assay: as §1; type: cell-based; details: pbmc, 48 h
[5] = tested on: Leishmania amazonensis; assay: Leishmanicidal activity against promastigote form of Leishmania amazonensis […] assessed as inhibition of parasite growth after 48 hrs by Neubauer's chamber method; type: functional, organism-based

Row | Compound | IC50 [1] | Ratio CC50/IC50 [2] | CC50 at 48 h [3] | CC50 [4] | IC50 [5]
1 | O=C(OCC1CCN(Cc2ccc3c(c2)OCO3)CC1)c1ccc2c(c1)OCO2 | 28.1 µM | 12.88 | 362 µM | – | –
2 | O=C(OCC1CCN(Cc2ccc3c(c2)OCO3)CC1)c1ccc(Br)cc1 | 38.3 µM | 5.43 | 208 µM | – | –
3 | O=C(OCC1CCN(Cc2ccc3c(c2)OCO3)CC1)c1ccc(Cl)cc1 | > 103 µM | – | – | Non-toxic | –
4 | O=C(/C=C/C=C/c1ccc2c(c1)OCO2)N1CCCCC1 [PIPERINE] | – | – | – | – | 14.5 µM
5 | O=C(OCC1CCN(Cc2ccc3c(c2)OCO3)CC1)c1ccc([N+](=O)[O-])cc1 | 17.2 µM | 20.64 | 356 µM | – | –
6 | O=C(/C=C/c1ccc2c(c1)OCO2)OCC1CCN(Cc2ccc3c(c2)OCO3)CC1 | > 94.5 µM | <10.06 | 950 µM | – | –
7 | O=C(OCC1CCN(Cc2ccc3c(c2)OCO3)CC1)c1ccc(F)cc1 | 57.4 µM | 7.33 | 420 µM | – | –
8 | COc1ccc(C(=O)OCC2CCN(Cc3ccc4c(c3)OCO4)CC2)cc1OC | 43.2 µM | 39.76 | 1720 µM | – | –
9 | CCNC(=O)OCC1CCN(Cc2ccc3c(c2)OCO3)CC1 | > 125 µM | <19.48 | 2430 µM | – | –
10 | O=C(OCC1CCN(Cc2ccc3c(c2)OCO3)CC1)c1ccccc1 | 78.3 µM | 3.9 | 306 µM | – | –
11 | CCCCCCNC(=O)OCC1CCN(Cc2ccc3c(c2)OCO3)CC1 | 28.6 µM | 5 | 143 µM | – | –

From ChEMBL document CHEMBL3600330, “Synthesis and biological evaluation of novel piperidine-benzodioxole derivatives designed as potential leishmanicidal drug candidates” (Bioorg Med Chem Lett, 2015)
